Measurements published in the supplement of paper PMC10307832.

Assays:
Experiment in all cases: relative viability (nuclei count vs DMSO), 5 days (fraction); higher = more cells survive
QS11 + Phenformin = compound: C1CC2=C(C1)C=C(C=C2)OC3=NC(=C4C(=N3)N(C=N4)CC5=CC=C(C=C5)C6=CC=CC=C6)N[C@@H](CC7=CC=CC=C7)CO [QS11] + N=C(N)NC(=N)NCCc1ccccc1 [Phenformin] (partner 250 µM)
Outline: (§1)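 Lung cancer cell lines were seeded in 1536-well plates and dosed by pin tool the next day, with either a single drug or a fixed anchor-drug dose combined with five library-drug doses (not always all listed) spaced in √10 steps. Five days later, one step fixed the cells and stained their nuclei (final 0.05% Triton X-100, 1% formaldehyde, 1 ug/ml Hoechst), and nuclei were counted on 4× images. Relative viability is the nuclei count in treated wells divided by the count in vehicle wells, and each value is the median of duplicate plates.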

[1] = compound: C[As](C)SC[C@H](NC(=O)CC[C@H](N)C(=O)O)C(=O)NCC(=O)O [Darinaparsin] + Cc1cc(Nc2cc(N3CCN(C)CC3)nc(Sc3ccc(NC(=O)C4CC4)cc3)n2)n[nH]1 [Tozasertib] (partner 0.1 µM)
Outline: as §1

AZ628 + Phenformin = compound: CC1=C(C=C(C=C1)NC(=O)C2=CC(=CC=C2)C(C)(C)C#N)NC3=CC4=C(C=C3)N=CN(C4=O)C [AZ628] + N=C(N)NC(=N)NCCc1ccccc1 [Phenformin] (partner 250 µM)
Outline: as §1

AZ628 + Crizotinib = compound: CC1=C(C=C(C=C1)NC(=O)C2=CC(=CC=C2)C(C)(C)C#N)NC3=CC4=C(C=C3)N=CN(C4=O)C [AZ628] + C[C@@H](Oc1cc(-c2cnn(C3CCNCC3)c2)cnc1N)c1c(Cl)ccc(F)c1Cl [Crizotinib] (partner 1 µM)
Outline: as §1

| Cell Line | relative viability (QS11 + Phenformin; first compound 0.08 µM) | relative viability (QS11 + Phenformin; first compound 0.253 µM) | relative viability (QS11 + Phenformin; first compound 0.8 µM) | relative viability (QS11 + Phenformin; first compound 2.53 µM) | relative viability (QS11 + Phenformin; first compound 8 µM) | relative viability ([1]; first compound 0.08 µM) | relative viability ([1]; first compound 0.8 µM) | relative viability ([1]; first compound 2.53 µM) | relative viability ([1]; first compound 8 µM) | relative viability (AZ628 + Phenformin; first compound 0.08 µM) | relative viability (AZ628 + Phenformin; first compound 0.253 µM) | relative viability (AZ628 + Phenformin; first compound 0.8 µM) | relative viability (AZ628 + Phenformin; first compound 2.53 µM) | relative viability (AZ628 + Phenformin; first compound 8 µM) | relative viability (AZ628 + Crizotinib; first compound 0.08 µM) | relative viability (AZ628 + Crizotinib; first compound 0.253 µM) | relative viability (AZ628 + Crizotinib; first compound 0.8 µM) | relative viability (AZ628 + Crizotinib; first compound 2.53 µM) | relative viability (AZ628 + Crizotinib; first compound 8 µM) |
| --- | --- | --- | --- | --- | --- | --- | --- | --- | --- | --- | --- | --- | --- | --- | --- | --- | --- | --- | --- |
| HCC-15 | 0.541 | 0.519 | 0.445 | 0.44 | 0.5 | 0.525 | 0.347 | 0.298 | 0.364 | 0.479 | 0.4 | 0.366 | 0.417 | 0.224 | 0.81 | 0.793 | 0.767 | 0.77 | 0.446 |
| HCC-44 | 0.208 | 0.206 | 0.25 | 0.158 | 0.157 | 1.21 | 0.927 | 0.769 | 0.87 | 0.218 | 0.0997 | 0.136 | 0.115 | 0.203 | 0.801 | 0.857 | 0.961 | 0.912 | 0.721 |
| HCC-78 | 0.788 | 0.722 | 0.725 | 0.871 | 0.798 | 0.449 | 0.461 | 0.386 | 0.491 | 0.814 | 0.631 | 0.767 | 0.705 | 0.726 | 0.404 | 0.403 | 0.38 | 0.413 | 0.4 |
| HCC-366 | 0.607 | 0.613 |  | 0.589 | 0.504 | 0.147 | 0.0892 | 0.149 | 0.168 | 0.585 | 0.572 | 0.554 | 0.598 | 0.499 | 0.519 | 0.627 | 0.308 | 0.427 | 0.236 |
| HCC-827 | 0.447 | 0.416 | 0.366 | 0.478 | 0.547 | 0.435 | 0.453 | 0.422 | 0.491 | 0.445 | 0.421 | 0.434 | 0.374 | 0.335 | 0.883 | 0.946 | 0.928 | 0.921 | 0.865 |
| HOP-62 | 0.677 | 0.743 | 0.657 | 0.497 | 0.669 | 0.352 | 0.414 | 0.343 | 0.354 | 0.792 | 0.821 | 0.707 | 0.746 | 0.437 | 1.06 | 0.834 | 0.926 | 1.16 | 0.412 |
| IA-LM |  |  |  |  |  |  |  |  |  |  |  |  |  |  | 0.971 | 0.749 | 0.678 | 0.829 | 0.18 |
| LC-2-ad | 0.535 | 0.482 | 0.535 | 0.551 | 0.599 | 0.49 | 0.425 | 0.329 | 0.35 | 0.606 | 0.562 | 0.556 | 0.49 | 0.532 | 0.503 | 0.457 | 0.448 | 0.44 | 0.505 |
| NCI-H522 | 0.689 | 0.656 | 0.621 | 0.705 | 0.677 | 0.508 | 0.602 | 0.534 | 0.599 | 0.628 | 0.516 | 0.617 | 0.542 | 0.663 |  |  |  |  |  |
| NCI-H1299 |  |  |  |  |  |  |  |  |  |  |  |  |  |  | 1.1 | 1.06 | 1.16 | 1.16 | 0.651 |
| NCI-H1395 | 0.397 | 0.437 | 0.425 | 0.457 | 0.453 | 0.839 | 0.771 | 0.765 | 0.723 | 0.478 | 0.39 | 0.423 | 0.436 | 0.422 |  |  |  |  |  |
| NCI-H1563 | 0.661 | 0.682 | 0.723 | 0.637 | 0.624 |  |  |  |  | 0.694 | 0.661 | 0.672 | 0.654 | 0.679 | 0.892 | 0.825 | 0.872 | 0.833 | 0.938 |
| NCI-H1623 | 0.497 | 0.576 | 0.489 | 0.548 | 0.602 | 0.467 | 0.404 | 0.416 | 0.399 | 0.6 | 0.524 | 0.382 | 0.505 | 0.437 |  |  |  |  |  |
| NCI-H1648 |  |  |  |  |  | 0.346 | 0.53 |  | 0.474 |  |  |  |  |  |  |  |  |  |  |
| NCI-H1703 |  |  |  |  |  |  |  |  |  |  |  |  |  |  | 0.538 | 0.672 | 0.405 | 0.204 | 0.192 |
| NCI-H1792 | 0.219 |  | 0.338 | 0.268 | 0.178 |  |  |  |  | 0.309 | 0.258 | 0.225 | 0.158 | 0.115 | 1.08 | 0.916 | 0.771 | 0.881 | 0.633 |
| NCI-H1793 | 0.304 | 0.386 | 0.355 | 0.345 | 0.376 | 0.344 | 0.305 | 0.278 | 0.385 | 0.433 | 0.25 | 0.333 | 0.314 | 0.302 |  |  |  |  |  |
| NCI-H2342 | 0.632 | 0.62 | 0.638 | 0.599 | 0.615 | 0.545 | 0.443 | 0.53 | 0.44 | 0.657 | 0.469 | 0.653 | 0.65 | 0.646 |  |  |  |  |  |
| SW 900 | 0.54 | 0.578 | 0.709 | 0.417 | 0.402 | 0.677 | 0.538 | 0.658 | 0.555 | 0.536 | 0.691 | 0.561 | 0.422 | 0.399 |  |  |  |  |  |
